Test system: solid malignant tumors
Assay: GEN1046 Phase I dose escalation (NCT03917381), response by RECIST v1.1
Assay type: in vivo, human
Conditions: for BOR Stable Disease, (percent) / BOR Stable Disease, patients / BOR Complete Response, (percent) / BOR Complete Response, patients / BOR Progressive Disease, (percent) / BOR Progressive Disease, patients / BOR Partial Response, (percent) / BOR Partial Response, patients: 3 Feb. 2020
From the text: The resistance to, failure to respond to and/or relapse from treatment with a binding agent of the invention and/or other therapeutic agent(s) may be determined according to the Response Evaluation Criteria In Solid Tumors; version 1.1 (RECIST Criteria v1.1).
The “best overall response” is the best response recorded from the start of the treatment until disease progression/recurrence (the smallest measurements recorded since the treatment started will be used as the reference for PD). Subjects with CR or PR are considered to be objective response. Subjects with CR, PR or SD are considered to be in disease control. Subjects with NE are counted as non-responders. […]
Clinical trial on GCT1046-01 (ClinicalTrials.gov Identifier: NCT03917381) was designed as a two-part trial, including an ongoing dose escalation part and a planned expansion part.
The trial consists of 2 parts; a First-in-Human (FIH) dose escalation (Phase I) and an expansion (Phase 11a).
For dose escalation, subject was required to be a man or […] and was required to have measurable disease according to RECIST 1.1.

## GEN1046: PD-L1×4-1BB bispecific antibody: PD-L1-547-FEAL combined with CD137-009-HC7LC2-FEAR (SEQ ID NOs: 1, 5, 21, 19; 8, 12, 22, 20)
140 mg (n = 1)
  BOR Stable Disease, (percent): (0)
  BOR Stable Disease, patients: 0
200 mg (N 9), Oct. 12, 2020
  CR (Complete Response), patients: 0
  Confirmed CR (Complete Response), patients: 0
  Confirmed Disease Control (PR + PR + SD) Rate, %: 66.7%
  Confirmed Disease Control (PR + PR + SD) Rate, patients: 6
  Confirmed NE (Not Evaluable), % of patients: 11.1%
  Confirmed NE (Not Evaluable), patients: 1
  Confirmed Objective Response (CR + PR) Rate, patients: 0
  Confirmed PD (Progressive Disease), % of patients: 22.2%
  Confirmed PD (Progressive Disease), patients: 2
  Confirmed PR (Partial Response), patients: 0
  Confirmed SD (Stable Disease), % of patients: 66.7%
  Confirmed SD (Stable Disease), patients: 6
  Disease Control (PR + PR + SD) Rate, %: 66.7%
  Disease Control (PR + PR + SD) Rate, patients: 6
  NE (Not Evaluable), % of patients: 11.1%
  NE (Not Evaluable), patients: 1
  Objective Response (CR + PR) Rate, %: 11.1%
  Objective Response (CR + PR) Rate, patients: 1
  PD (Progressive Disease), % of patients: 22.2%
  PD (Progressive Disease), patients: 2
  PR (Partial Response), % of patients: 11.1%
  PR (Partial Response), patients: 1
200 mg (n = 8)
  BOR Complete Response, (percent): (0)
  BOR Complete Response, patients: 0
  BOR Progressive Disease, (percent): (25)
  BOR Progressive Disease, patients: 2
  BOR Stable Disease, (percent): (62.5)
  BOR Stable Disease, patients: 5
200 mg (n = 8), uPR
  BOR Partial Response, (percent): (12.5)
  BOR Partial Response, patients: 1^1
400 mg (N 9), Oct. 12, 2020
  CR (Complete Response), patients: 0
  Confirmed CR (Complete Response), patients: 0
  Confirmed Disease Control (PR + PR + SD) Rate, %: 77.8%
  Confirmed Disease Control (PR + PR + SD) Rate, patients: 7
  Confirmed NE (Not Evaluable), patients: 0
  Confirmed Objective Response (CR + PR) Rate, patients: 0
  Confirmed PD (Progressive Disease), % of patients: 22.2%
  Confirmed PD (Progressive Disease), patients: 2
  Confirmed PR (Partial Response), patients: 0
  Confirmed SD (Stable Disease), % of patients: 77.8%
  Confirmed SD (Stable Disease), patients: 7
  Disease Control (PR + PR + SD) Rate, %: 77.8%
  Disease Control (PR + PR + SD) Rate, patients: 7
  NE (Not Evaluable), patients: 0
  Objective Response (CR + PR) Rate, patients: 0
  PD (Progressive Disease), % of patients: 22.2%
  PD (Progressive Disease), patients: 2
  PR (Partial Response), patients: 0
400 mg (n = 6)
  BOR Complete Response, (percent): (0)
  BOR Complete Response, patients: 0
  BOR Partial Response, (percent): (0)
  BOR Partial Response, patients: 0
  BOR Progressive Disease, (percent): (0)
  BOR Progressive Disease, patients: 0
  BOR Stable Disease, (percent): (100)
  BOR Stable Disease, patients: 6
800 mg (N 9), Oct. 12, 2020
  CR (Complete Response), patients: 0
  Confirmed CR (Complete Response), patients: 0
  Confirmed Disease Control (PR + PR + SD) Rate, %: 55.6%
  Confirmed Disease Control (PR + PR + SD) Rate, patients: 5
  Confirmed NE (Not Evaluable), % of patients: 22.2%
  Confirmed NE (Not Evaluable), patients: 2
  Confirmed Objective Response (CR + PR) Rate, patients: 0
  Confirmed PD (Progressive Disease), % of patients: 22.2%

Reference: US20240109972A1, “ANTIBODY AND TAXANE COMBINATION THERAPY” (Genmab A/S, priority 2020, published 2024)
